Test results from paper PMC6792352, “Limited Chemical Structural Diversity Found to Modulate Thyroid Hormone Receptor in the Tox21 Chemical Library” (Environmental Health Perspectives, 2019).
Structures can show the parent of a compound that is named as a salt. Positions of bridges follow the written chain, without caps; N, C: chain ends. Non-standard residues stand in square brackets, D forms with d. Residues, ends and D or L forms follow the SMILES beside them. *: point of attachment. X3 = CC[C@H](C)CCCCC(=O)*; Dab = NCC[C@H](N)C(=O)O

Assay: in vitro
Details: rat, gh3-tre-luc cells

SMILES | CC50 at 24 h (AC50 (uM) modified / 1000) [µM] | other results
C[C@@H]([C@H](O)c1ccccc1)N(C)C [Methylephedrine] | – | CC50 at 24 h (AC50 (uM) modified / 1000, Tox21_110001=Tox21_111521, viability, 1 nM T3 present, 24 h): > 50 µM
CCC(=O)NS(=O)(=O)c1ccc(-c2c(-c3ccccc3)noc2C)cc1 [Parecoxib sodium] | > 50 | –
NCCN1CCNCC1 [1-(2-Aminoethyl)piperazine] | > 90 | –
Nc1ccccc1S(=O)(=O)O [Orthanilic acid] | > 90 | –
CCOC(=O)C(O)(c1ccc(Cl)cc1)c1ccc(Cl)cc1 [Chlorobenzilate] | – | CC50 at 24 h (AC50 (uM) modified / 1000, Tox21_110001=Tox21_201753, viability, 1 nM T3 present, 24 h): 58.2 µM; CC50 at 24 h (AC50 (uM) modified / 1000, Tox21_110001=Tox21_300594, viability, 1 nM T3 present, 24 h): 54.6 µM
Cc1onc(-c2c(Cl)cccc2Cl)c1C(=O)N[C@@H]1C(=O)N2[C@@H]1SC(C)(C)[C@@H]2C(=O)O [Dicloxacillin sodium salt monohydrate] | > 50 | –
O=c1cc(-c2ccccc2)oc2ccccc12 [Flavone] | > 90 | –
O=C1Nc2ccc(Cl)cc2C(c2ccccc2Cl)=NC1O (centres unmarked) [Lorazepam] | > 50 | –
CC(C)(C)NCC(O)c1ccc(O)c(CO)c1 (centres unmarked) [Albuterol] | > 90 | –
C[C@@](Cc1ccc(O)c(O)c1)(NN)C(=O)O [Carbidopa] | > 50 | –
CC(C)(C)c1ccc(-c2ccc(C(C)(C)C)cc2)cc1 [4,4'-Di-tert-butylbiphenyl] | > 90 | –
CCOC(=O)C(C)Oc1ccc(Oc2cnc3cc(Cl)ccc3n2)cc1 (centres unmarked) [Quizalofop-ethyl] | > 90 | –
CCOC(=O)c1cnc2c(cnn2CC)c1NN=C(C)C [Etazolate hydrochloride] | > 50 | –
CCCOCCOCCO [2-(2-Propoxyethoxy)ethanol] | > 90 | –
O=C(NCNC(=O)NC1C(=O)NC(=O)N1CO)NC1C(=O)NC(=O)N1CO (centres unmarked) [Imidazolidinyl urea] | > 90 | –
O=S(=O)(O)c1ccc2[nH]c(-c3ccccc3)nc2c1 [Ensulizole] | > 90 | –
CCCCCCCC[N+](C)(CCCCCCCC)CCCCCCCC [Methyltrioctylammonium trifluoromethanesulfonate] | 4.19 | –
CC(=O)OCCOCCOCCOC(C)=O [Triethylene glycol diacetate] | > 90 | –
CC(COc1ccccc1)NN (centres unmarked) [Phenoxypropazine] | > 50 | –
CO[C@H]1O[C@@H]2O[C@@]3(C)CC[C@H]4[C@H](C)CC[C@@H]([C@H]1C)[C@@]24OO3 [Artemether] | > 50 | –
Nc1ccc(-c2ccc(N)cc2)cc1 [Benzidine dihydrochloride] | – | CC50 at 24 h (AC50 (uM) modified / 1000, Tox21_110001=Tox21_202584, viability, 1 nM T3 present, 24 h): > 50 µM
CCN(CC)CCOC(=O)C(C)(c1ccccc1)c1ccccc1 [Aprofene] | – | CC50 at 24 h (AC50 (uM) modified / 1000, Tox21_110001=Tox21_111979, viability, 1 nM T3 present, 24 h): 15.4 µM
NC(N)=NN=C(/C=C/c1ccc([N+](=O)[O-])o1)/C=C/c1ccc([N+](=O)[O-])o1 [Nitrovin] | 1.82 | –

SMILES | CC50 at 24 h (AC50 (uM) modified / 1000) [µM] | other results
CC(C)Cn1cnc2c1c(=O)n(C)c(=O)n2C [Isbufylline] | > 50 | –
CCCCNS(=O)(=O)c1ccc(C)cc1 [N-Butyl-p-toluenesulfonamide] | > 90 | –
NC(N)=[Se] [Selenourea] | – | CC50 at 24 h (AC50 (uM) modified / 1000, Tox21_110001=Tox21_200857, viability, 1 nM T3 present, 24 h): > 90 µM
O=C(O)CCCO [Sodium 4-hydroxybutanoate] | – | CC50 at 24 h (AC50 (uM) modified / 1000, Tox21_110001=Tox21_112871, viability, 1 nM T3 present, 24 h): > 100 µM
CN1CCCN=C1/C=C/c1cccs1 [Pyrantel tartrate] | > 50 | –
CC[C@H](C)CCCCC(=O)N[C@@H](CCN)C(=O)N[C@H](C(=O)N[C@@H](CCN)C(=O)N[C@H]1CCNC(=O)[C@H]([C@@H](C)O)NC(=O)[C@H](CCN)NC(=O)[C@H](CCN)NC(=O)[C@H](CC(C)C)NC(=O)[C@@H](CC(C)C)NC(=O)[C@H](CCN)NC1=O)[C@@H](C)O [Colistin A] (X3-[Dab]T[Dab][Dab][Dab][dL]L[Dab][Dab]T; lactam 4-C) | > 50 | –
CC(C)C(C)(N)C#N (centres unmarked) [2-Amino-2,3-dimethylbutanenitrile] | – | CC50 at 24 h (AC50 (uM) modified / 1000, Tox21_110001=Tox21_302196, viability, 1 nM T3 present, 24 h): > 90 µM
CCOC(=O)COc1ccc(C)cc1 [(4-Methylphenoxy) acetic acid ethyl ester] | > 90 | –
[H]/N=C(\N/C(=N/[H])Nc1ccc(Cl)cc1)NC(C)C [Proguanil hydrochloride] | > 20 | –
CCOC(=O)c1ccccc1C(=C1C=C(Br)C(=O)C(Br)=C1)c1cc(Br)c(O)c(Br)c1 [Tetrabromophenolphthalein ethyl ester] | 42.7 | –
C=C1CC/C=C(\C)CC[C@@H]2[C@@H]1CC2(C)C [beta-Caryophyllene] | > 90 | –
Cc1ncc([N+](=O)[O-])n1CCO [Metronidazole] | > 50 | –
C=C(C)C1CC=C(C)C(=O)C1 (racemic) [dl-Carvone] | > 90 | –
Cn1cc([S+](C)[O-])c(=O)c2ccc(F)cc21 (centres unmarked) [Flosequinan] | > 50 | –
O=Nc1ccc(NO)cc1 [p-Benzoquinone dioxime] | > 100 | –
O=C1NS(=O)(=O)c2ccccc21 [Sodium saccharin] | > 90 | –
NNc1ccccc1 [Phenylhydrazine hydrochloride] | – | CC50 at 24 h (AC50 (uM) modified / 1000, Tox21_110001=Tox21_111618, viability, 1 nM T3 present, 24 h): > 50 µM; CC50 at 24 h (AC50 (uM) modified / 1000, Tox21_110001=Tox21_202198, viability, 1 nM T3 present, 24 h): 40.6 µM; CC50 at 24 h (AC50 (uM) modified / 1000, Tox21_110001=Tox21_302936, viability, 1 nM T3 present, 24 h): 66.7 µM
CC(C(=O)O)c1ccc(N2Cc3ccccc3C2=O)cc1 (centres unmarked) [Indoprofen] | > 50 | –
CN(CCO)CC(O)Cn1cnc2c1c(=O)n(C)c(=O)n2C (centres unmarked) [Xanthinol niacinate] | > 50 | –
O=C(O)CC/C=C\CC[C@@H]1[C@@H](N2CCCCC2)[C@@H](O)C[C@@H]1OCc1ccc(-c2ccccc2)cc1 [Vapiprost hydrochloride] | > 50 | –
CC(C)(C)C(=O)c1ccccc1 [tert-Butyl phenyl ketone] | > 90 | –
CC1CCC(C(C)C)C(OC(=O)c2ccccc2N)C1 (centres unmarked) [Menthyl anthranilate] | – | CC50 at 24 h (AC50 (uM) modified / 1000, Tox21_110001=Tox21_111602, viability, 1 nM T3 present, 24 h): 42.1 µM; CC50 at 24 h (AC50 (uM) modified / 1000, Tox21_110001=Tox21_200561, viability, 1 nM T3 present, 24 h): 27.5 µM
Cc1ccc(S(=O)(=O)NC(=O)NN2CC3CCC[C@@H]3C2)cc1 (stereo in doubt) [Gliclazide] | > 20 | –

SMILES | CC50 at 24 h (AC50 (uM) modified / 1000) [µM] | other results
O=C(NN1CCCC1)NS(=O)(=O)c1ccc(Cl)cc1 [Glyclopyramide] | > 50 | –
COC(=O)C1=C(C)NC(C)=C(C(=O)O[C@@H]2CCCN(Cc3ccccc3)C2)[C@@H]1c1cccc([N+](=O)[O-])c1 (racemic) [rac Benidipine hydrochloride] | 25.5 | –
CCCCCC(C)O (centres unmarked) [2-Heptanol] | > 90 | –
BrC/C=C/CBr [(E)-1,4-Dibromo-2-butene] | > 20 | –
O=P1(NCCCl)OCCCN1CCCl (centres unmarked) [Ifosfamide] | – | CC50 at 24 h (AC50 (uM) modified / 1000, Tox21_110001=Tox21_110539, viability, 1 nM T3 present, 24 h): > 20 µM; CC50 at 24 h (AC50 (uM) modified / 1000, Tox21_110001=Tox21_201815, viability, 1 nM T3 present, 24 h): > 90 µM
O=C(O)C(F)(F)C(F)(F)C(F)(F)C(F)(F)C(F)(F)C(F)(F)C(F)(F)C(F)(F)F [Perfluorononanoic acid] | > 90 | –
CCCCCCC#N [Heptanenitrile] | – | CC50 at 24 h (AC50 (uM) modified / 1000, Tox21_110001=Tox21_200526, viability, 1 nM T3 present, 24 h): > 90 µM
Cc1ccc2cccnc2c1 [7-Methylquinoline] | > 90 | –
O=S(=O)(O)c1ccc2ccccc2c1 [Sodium 2-naphthalenesulfonate] | > 90 | –
CC(COc1ccc(Oc2ccccc2)cc1)Oc1ccccn1 (centres unmarked) [Pyriproxyfen] | > 90 | –
Cc1cc(O)c2ccccc2c1O [Menadiol] | 37.2 | –
CCC(C)(C)c1cc(-n2nc3ccccc3n2)c(O)c(C(C)(C)CC)c1 [2-(2H-Benzotriazol-2-yl)-4,6-bis(1,1-dimethylpropyl)phenol] | > 90 | –
CC(Cc1ccccc1)NCCn1cnc2c1c(=O)n(C)c(=O)n2C (centres unmarked) [Fenethylline hydrochloride] | – | CC50 at 24 h (AC50 (uM) modified / 1000, Tox21_110001=Tox21_112896, viability, 1 nM T3 present, 24 h): > 90 µM
CC(=O)c1ccc2c(c1)N(CCCN(C)C)c1ccccc1S2 [Acetopromazine maleate] | 9.14 | –
CCCC(Cn1cncn1)c1ccc(Cl)cc1Cl (centres unmarked) [Penconazole] | 78.4 | –
CC(Oc1cc(Cl)c(Cl)cc1Cl)C(=O)O (centres unmarked) [2-(2,4,5-Trichlorophenoxy)propionic acid] | > 90 | –
c1coc(Cn2cccc2)c1 [1-Furfurylpyrrole] | > 90 | –
CC(=O)Oc1ccc(C2(c3ccc(OC(C)=O)cc3)Oc3ccccc3NC2=O)cc1 [Bisoxatin acetate] | 4.41 | –
C=CC(=O)NC(C)(C)CS(=O)(=O)O [2-Acrylamido-2-methyl-1-propanesulfonic acid] | > 90 | –
CCSC(=O)N1CCCCCC1 [Molinate] | > 90 | –
CC1=CCC(O)(C(C)C)CC1 (centres unmarked) [4-Methyl-1-(propan-2-yl)cyclohex-3-en-1-ol] | > 90 | –
Nc1ccc(Oc2ccc(N)c(N)c2)cc1 [3,4,4'-Triaminodiphenyl ether] | 75.2 | –
CC(C)(C)OCC1CO1 (centres unmarked) [tert-Butyl glycidyl ether] | > 90 | –
